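96-well plates; 48 h exposure; 5 concentrations. Endpoints by linear interpolation between flanking doses. Not reached: highest tested concentration assigned. GI50 = concentration required for 50% inhibition of growth.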 The source made the active and inactive calls. Cut-off read from the data, not from the text of the source: active = GI50 up to about 1.1 µM and inactive = higher.
How the values were obtained:
Experiment in all cases: growth of human tumour cells (NCI), 48 h
[1] = system: Malme-3M
[2] = system: HOP-62
[3] = system: OVCAR-8
[4] = system: SK-MEL-2
[5] = system: UACC-257
[6] = system: CCRF-CEM
[7] = system: ACHN
[8] = system: TK-10
[9] = system: SNB-19
[10] = system: KM12
[11] = system: OVCAR-5
[12] = system: RPMI-8226
[13] = system: UACC-62
[14] = system: COLO 205
[15] = system: HCC 2998
[16] = system: SF-268
[17] = system: LXFL 529
[18] = system: RXF 393

Row | Compound | GI50 [1] | GI50 [2] | GI50 [3] | GI50 [4] | GI50 [5] | GI50 [6] | GI50 [7] | GI50 [8] | GI50 [9] | GI50 [10] | GI50 [11] | GI50 [12] | GI50 [13] | GI50 [14] | GI50 [15] | GI50 [16] | GI50 [17] | GI50 [18]
1 | CC1(C)C2CCC3(C2)CS(=O)(=O)N2OC231 (stereo unspecified) | 15.5 µM (inactive) | 79.8 µM (inactive) | 24.8 µM (inactive) | 21.1 µM (inactive) | 17.1 µM (inactive) | 24.5 µM (inactive) | 15.9 µM (inactive) | 18 µM (inactive) | 34.4 µM (inactive) | 19.6 µM (inactive) | 23.7 µM (inactive) | 29.5 µM (inactive) | 17.5 µM (inactive) | 17.9 µM (inactive) | 38.1 µM (inactive) | 26.4 µM (inactive) | 16.7 µM (inactive) | 
2 | COCCCNC(=O)CC(=O)NCCCOC | > 100 µM (inactive) | > 100 µM (inactive) | > 100 µM (inactive) | > 100 µM (inactive) | > 100 µM (inactive) | > 100 µM (inactive) | > 100 µM (inactive) | > 100 µM (inactive) | > 100 µM (inactive) | > 100 µM (inactive) | > 100 µM (inactive) | > 100 µM (inactive) | > 100 µM (inactive) | > 100 µM (inactive) | > 100 µM (inactive) | > 100 µM (inactive) | > 100 µM (inactive) | > 100 µM (inactive)
3 | Cc1ccc([N+](=O)[O-])cc1NC(=O)/C(CC(=O)c1sc(C(N)=S)nc1C)=N\N | > 100 µM (inactive) | > 100 µM (inactive) | > 100 µM (inactive) | > 100 µM (inactive) | > 100 µM (inactive) | 26.9 µM (inactive) | 96.2 µM (inactive) | > 100 µM (inactive) | > 100 µM (inactive) | 54.1 µM (inactive) | > 100 µM (inactive) | > 100 µM (inactive) | > 100 µM (inactive) |  | > 100 µM (inactive) | > 100 µM (inactive) | 41.7 µM (inactive) | > 100 µM (inactive)
4 | COC(=O)C(Cc1ccccc1)NC(=O)Cn1ccnc1[N+](=O)[O-] (stereo unspecified) | 31.7 µM (inactive) | > 100 µM (inactive) | > 100 µM (inactive) | > 100 µM (inactive) | > 100 µM (inactive) | > 100 µM (inactive) | > 100 µM (inactive) | > 100 µM (inactive) | > 100 µM (inactive) | > 100 µM (inactive) | > 100 µM (inactive) | > 100 µM (inactive) | > 100 µM (inactive) | 77.3 µM (inactive) |  | > 100 µM (inactive) | > 100 µM (inactive) | > 100 µM (inactive)
5 | COc1cc2c(cc1OC)C1Cc3cc(OC)c(OC)cc3N1CC2 (stereo unspecified) | 20.9 µM (inactive) | 27.6 µM (inactive) | 34.8 µM (inactive) | 52.4 µM (inactive) | 42 µM (inactive) | 43.5 µM (inactive) | 22.3 µM (inactive) | 23 µM (inactive) | 36.2 µM (inactive) | 28.6 µM (inactive) | > 100 µM (inactive) | 28.8 µM (inactive) | 26.1 µM (inactive) | 20.5 µM (inactive) | 79.4 µM (inactive) | 35 µM (inactive) | 19.3 µM (inactive) | 
6 | C=C=C(Sc1ccccc1)C(C)(C)O | > 100 µM (inactive) |  | > 100 µM (inactive) | > 100 µM (inactive) | > 100 µM (inactive) | > 100 µM (inactive) | > 100 µM (inactive) | > 100 µM (inactive) | > 100 µM (inactive) | > 100 µM (inactive) | > 100 µM (inactive) | > 100 µM (inactive) | > 100 µM (inactive) | > 100 µM (inactive) | > 100 µM (inactive) | > 100 µM (inactive) | > 100 µM (inactive) | > 100 µM (inactive)
7 | CC(=O)c1c(O)c2c([nH]c1=O)CCCC2 | > 100 µM (inactive) | 19.9 µM (inactive) | 82.2 µM (inactive) |  |  | > 100 µM (inactive) | > 100 µM (inactive) | > 100 µM (inactive) | 18 µM (inactive) |  |  |  | 18.1 µM (inactive) | > 100 µM (inactive) | 8.05 µM (inactive) | 46.8 µM (inactive) | > 100 µM (inactive) | 22.3 µM (inactive)
8 | O=C(Cc1ccccc1)N/N=C(/c1nc2ccc([N+](=O)[O-])cc2nc1O)C(O)c1ccc(C(O)/C(=N/NC(=O)Cc2ccccc2)c2nc3ccc([N+](=O)[O-])cc3nc2O)cc1 (stereo unspecified) | > 100 µM (inactive) | 44.6 µM (inactive) | 80.4 µM (inactive) | 40 µM (inactive) | 62.4 µM (inactive) | 7.26 µM (inactive) | 35.2 µM (inactive) | 48.1 µM (inactive) | > 100 µM (inactive) |  | 40.4 µM (inactive) | 21 µM (inactive) | 35.6 µM (inactive) | 37.5 µM (inactive) | 27 µM (inactive) | 20.2 µM (inactive) | 24.7 µM (inactive) | > 100 µM (inactive)
9 | Cc1ccc(C2=Nc3ccccc3[S+]([O-])C(c3ccc4c(c3)OCO4)C2)cc1 (stereo unspecified) | 33.8 µM (inactive) | 39.4 µM (inactive) | 20.5 µM (inactive) | 19 µM (inactive) | 29.7 µM (inactive) | 26.2 µM (inactive) | 20.3 µM (inactive) | 44.7 µM (inactive) | 58.7 µM (inactive) | 18.2 µM (inactive) |  |  | 18.3 µM (inactive) | 29.6 µM (inactive) | > 10 µM (inactive) | 19.5 µM (inactive) | > 10 µM (inactive) | 16.9 µM (inactive)
10 | N#CC1(C2CC(=O)N(c3ccccc3)C2=O)CCCCC1=O (stereo unspecified) | 0.498 µM (active) |  | > 100 µM (inactive) |  |  | > 100 µM (inactive) | > 100 µM (inactive) | > 100 µM (inactive) | > 100 µM (inactive) | > 100 µM (inactive) | > 100 µM (inactive) | > 100 µM (inactive) | > 100 µM (inactive) | > 100 µM (inactive) | 0.104 µM (active) | > 100 µM (inactive) | > 100 µM (inactive) | > 100 µM (inactive)
11 | CCNC(=O)O/N=C1\CCC2[C@@H]3CC=C4C[C@@H](OC5CCCCO5)CC[C@]4(C)C3CC[C@]12C (stereo partly specified) | 1.02 µM (active) | 22.3 µM (inactive) | 3.9 µM (inactive) | 2.2 µM (inactive) | 1.61 µM (inactive) |  | 1.45 µM (inactive) | 2 µM (inactive) | 0.723 µM (active) | 3.94 µM (inactive) | 2.48 µM (inactive) | 1.58 µM (inactive) | 0.733 µM (active) | 0.964 µM (active) | 2.89 µM (inactive) |  | 1.2 µM (inactive) | 2.2 µM (inactive)
12 | CCN(CC)c1cccc2c1C1(O)CCC3(CC21)OCCCCO3 (stereo unspecified) | > 100 µM (inactive) | > 100 µM (inactive) | 44.9 µM (inactive) | > 100 µM (inactive) | > 100 µM (inactive) | 90.4 µM (inactive) | 91.8 µM (inactive) | > 100 µM (inactive) | 18 µM (inactive) | 57.8 µM (inactive) | > 100 µM (inactive) | 77.6 µM (inactive) |  | > 100 µM (inactive) | > 100 µM (inactive) | > 100 µM (inactive) | > 100 µM (inactive) | 15.3 µM (inactive)
13 | CCCCCC[C@@H]1CCC2C(CO)[C@@H](O)CC[C@@H]2C1 (stereo partly specified) | 18.8 µM (inactive) | 18.3 µM (inactive) | 18.2 µM (inactive) | 26.7 µM (inactive) | 16.7 µM (inactive) | 23.6 µM (inactive) | 19.1 µM (inactive) |  | 18.1 µM (inactive) | 18.7 µM (inactive) | 18.5 µM (inactive) | 25.3 µM (inactive) | 21.3 µM (inactive) | 18.5 µM (inactive) | 22 µM (inactive) | 18.1 µM (inactive) | 18.5 µM (inactive) | 
14 | CC(=O)c1ccc(NC(=O)C(=O)Nn2c(S)nc3ccccc3c2=O)cc1 | > 100 µM (inactive) | > 100 µM (inactive) | > 100 µM (inactive) | > 100 µM (inactive) | > 100 µM (inactive) |  | > 100 µM (inactive) | > 100 µM (inactive) | > 100 µM (inactive) | > 100 µM (inactive) | > 100 µM (inactive) | > 100 µM (inactive) | > 100 µM (inactive) | > 100 µM (inactive) | > 100 µM (inactive) | > 100 µM (inactive) | > 100 µM (inactive) | > 100 µM (inactive)
15 | C=CCNC(=S)N1CC(C)C(=O)Nc2ccccc21 (stereo unspecified) | > 100 µM (inactive) | > 100 µM (inactive) | > 100 µM (inactive) | > 100 µM (inactive) |  | > 100 µM (inactive) | > 100 µM (inactive) | > 100 µM (inactive) | > 100 µM (inactive) | > 100 µM (inactive) | > 100 µM (inactive) | > 100 µM (inactive) | > 100 µM (inactive) | > 100 µM (inactive) |  | > 100 µM (inactive) | > 100 µM (inactive) | > 100 µM (inactive)
16 | CC(=O)c1cccc(NC(=O)/C(=N\NC(C)(C)C)c2c(O)c3ccccc3oc2=O)c1 | > 100 µM (inactive) | > 100 µM (inactive) | > 100 µM (inactive) | > 100 µM (inactive) | > 100 µM (inactive) | > 100 µM (inactive) | > 100 µM (inactive) | > 100 µM (inactive) | > 100 µM (inactive) | > 100 µM (inactive) |  |  | > 100 µM (inactive) | > 100 µM (inactive) | > 100 µM (inactive) | > 100 µM (inactive) | > 100 µM (inactive) | > 100 µM (inactive)
17 | Cc1occ2c1C(=O)CC1C2[C@@H](O)CC2C(C)(C)CCC[C@]12C (stereo partly specified) | > 100 µM (inactive) | > 100 µM (inactive) | > 100 µM (inactive) |  | > 100 µM (inactive) | 42.7 µM (inactive) | > 100 µM (inactive) |  | > 100 µM (inactive) |  |  | 55.6 µM (inactive) | 95.7 µM (inactive) | > 100 µM (inactive) | > 100 µM (inactive) | > 100 µM (inactive) | > 100 µM (inactive) | > 100 µM (inactive)

Reference: ChEMBL document CHEMBL1201862, “PubChem BioAssay data set” (2004)
